# Data from patent publication US6387849B1, “Herbicidal hydroximic acid derivatives” (BASF Aktiengesellschaft, priority 1997, dated 2002).
compound,measurement,value
"CO/N=C(\OC)c1cc(-n2c(=O)cc(C(F)(F)F)n(C)c2=O)c(F)cc1Cl [Compound 4.01, 3-[2-fluoro-4-chloro-5-methoxyimino-(methoxy)methylphenyl]-2,4-dioxo-1-methyl-6-trifluoromethyl-1,2,3,4-tetrahydropyrimidine]",melting point,122 to 124 °C
